Tests used:
[1] = target: T1, Epidermal growth factor receptor (Homo sapiens, UniProt P00533); experiment: Inhibition of human recombinant EGFR by fluorescence polarization assay
[2] = target: T1, Epidermal growth factor receptor; experiment: Inhibition of human EGFR autophosphorylation in A431 cells
[3] = target: Tyrosine-protein kinase ABL1 (Homo sapiens, UniProt P00519); experiment: Inhibition of ABL
[4] = target: Tyrosine-protein kinase SYK (Homo sapiens, UniProt P43405); experiment: Inhibition of SYK
[5] = target: Vascular endothelial growth factor receptor 1 (Homo sapiens, UniProt P17948); experiment: Inhibition of Flt1
[6] = target: Vascular endothelial growth factor receptor 2 (Homo sapiens, UniProt P35968); experiment: Inhibition of KDR
[7] = target: Proto-oncogene tyrosine-protein kinase Src (Homo sapiens, UniProt P12931); experiment: Inhibition of SRC
Sequence of Proto-oncogene tyrosine-protein kinase Src (P12931 2-536 limits assumed): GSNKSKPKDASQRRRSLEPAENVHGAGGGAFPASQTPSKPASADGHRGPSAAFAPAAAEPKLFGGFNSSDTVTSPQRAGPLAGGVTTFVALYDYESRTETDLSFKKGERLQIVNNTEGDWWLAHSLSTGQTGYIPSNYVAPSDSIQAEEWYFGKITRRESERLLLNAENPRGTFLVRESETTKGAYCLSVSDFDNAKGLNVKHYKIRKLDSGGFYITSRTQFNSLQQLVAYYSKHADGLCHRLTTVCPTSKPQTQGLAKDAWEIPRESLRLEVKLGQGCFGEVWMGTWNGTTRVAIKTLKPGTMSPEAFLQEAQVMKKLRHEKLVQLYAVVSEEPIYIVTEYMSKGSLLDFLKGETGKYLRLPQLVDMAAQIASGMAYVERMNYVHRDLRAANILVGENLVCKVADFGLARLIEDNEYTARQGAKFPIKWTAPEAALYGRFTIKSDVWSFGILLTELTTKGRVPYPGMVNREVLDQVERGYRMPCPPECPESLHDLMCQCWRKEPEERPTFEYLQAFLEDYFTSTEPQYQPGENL

Sequence of Vascular endothelial growth factor receptor 1 (P17948 whole entry): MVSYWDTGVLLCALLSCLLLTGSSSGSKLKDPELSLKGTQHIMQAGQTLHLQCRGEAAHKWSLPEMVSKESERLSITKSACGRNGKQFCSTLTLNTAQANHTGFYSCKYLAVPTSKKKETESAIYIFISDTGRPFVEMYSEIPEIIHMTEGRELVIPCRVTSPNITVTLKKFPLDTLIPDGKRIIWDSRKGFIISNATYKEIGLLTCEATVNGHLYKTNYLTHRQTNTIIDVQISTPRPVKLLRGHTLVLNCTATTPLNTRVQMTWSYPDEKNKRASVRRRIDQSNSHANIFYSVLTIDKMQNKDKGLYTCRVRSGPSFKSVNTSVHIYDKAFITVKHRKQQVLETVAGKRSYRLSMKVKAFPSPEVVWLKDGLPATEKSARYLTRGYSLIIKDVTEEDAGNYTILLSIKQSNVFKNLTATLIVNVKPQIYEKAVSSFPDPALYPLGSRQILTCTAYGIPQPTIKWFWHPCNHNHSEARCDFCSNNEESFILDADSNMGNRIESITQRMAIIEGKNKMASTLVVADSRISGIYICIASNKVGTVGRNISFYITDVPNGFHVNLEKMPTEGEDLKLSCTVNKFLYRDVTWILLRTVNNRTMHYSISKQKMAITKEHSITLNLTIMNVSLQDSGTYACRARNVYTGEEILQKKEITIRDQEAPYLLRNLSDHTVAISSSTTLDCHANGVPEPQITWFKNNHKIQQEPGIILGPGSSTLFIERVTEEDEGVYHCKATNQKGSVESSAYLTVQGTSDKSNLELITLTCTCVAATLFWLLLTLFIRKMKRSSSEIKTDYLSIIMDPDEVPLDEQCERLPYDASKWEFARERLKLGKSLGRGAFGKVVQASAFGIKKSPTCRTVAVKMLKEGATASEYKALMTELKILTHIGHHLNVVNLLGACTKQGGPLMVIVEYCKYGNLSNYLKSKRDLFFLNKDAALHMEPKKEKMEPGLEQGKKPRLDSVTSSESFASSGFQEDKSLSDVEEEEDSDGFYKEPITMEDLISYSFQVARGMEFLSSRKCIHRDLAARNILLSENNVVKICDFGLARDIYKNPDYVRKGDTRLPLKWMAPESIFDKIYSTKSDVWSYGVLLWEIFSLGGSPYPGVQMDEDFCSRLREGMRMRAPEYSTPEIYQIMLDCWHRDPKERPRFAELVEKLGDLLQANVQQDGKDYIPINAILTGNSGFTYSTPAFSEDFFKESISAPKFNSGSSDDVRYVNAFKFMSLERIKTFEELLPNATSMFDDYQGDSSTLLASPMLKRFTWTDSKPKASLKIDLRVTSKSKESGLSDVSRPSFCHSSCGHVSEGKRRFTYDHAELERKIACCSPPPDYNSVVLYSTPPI
Sequence of Tyrosine-protein kinase ABL1 (P00519 whole entry): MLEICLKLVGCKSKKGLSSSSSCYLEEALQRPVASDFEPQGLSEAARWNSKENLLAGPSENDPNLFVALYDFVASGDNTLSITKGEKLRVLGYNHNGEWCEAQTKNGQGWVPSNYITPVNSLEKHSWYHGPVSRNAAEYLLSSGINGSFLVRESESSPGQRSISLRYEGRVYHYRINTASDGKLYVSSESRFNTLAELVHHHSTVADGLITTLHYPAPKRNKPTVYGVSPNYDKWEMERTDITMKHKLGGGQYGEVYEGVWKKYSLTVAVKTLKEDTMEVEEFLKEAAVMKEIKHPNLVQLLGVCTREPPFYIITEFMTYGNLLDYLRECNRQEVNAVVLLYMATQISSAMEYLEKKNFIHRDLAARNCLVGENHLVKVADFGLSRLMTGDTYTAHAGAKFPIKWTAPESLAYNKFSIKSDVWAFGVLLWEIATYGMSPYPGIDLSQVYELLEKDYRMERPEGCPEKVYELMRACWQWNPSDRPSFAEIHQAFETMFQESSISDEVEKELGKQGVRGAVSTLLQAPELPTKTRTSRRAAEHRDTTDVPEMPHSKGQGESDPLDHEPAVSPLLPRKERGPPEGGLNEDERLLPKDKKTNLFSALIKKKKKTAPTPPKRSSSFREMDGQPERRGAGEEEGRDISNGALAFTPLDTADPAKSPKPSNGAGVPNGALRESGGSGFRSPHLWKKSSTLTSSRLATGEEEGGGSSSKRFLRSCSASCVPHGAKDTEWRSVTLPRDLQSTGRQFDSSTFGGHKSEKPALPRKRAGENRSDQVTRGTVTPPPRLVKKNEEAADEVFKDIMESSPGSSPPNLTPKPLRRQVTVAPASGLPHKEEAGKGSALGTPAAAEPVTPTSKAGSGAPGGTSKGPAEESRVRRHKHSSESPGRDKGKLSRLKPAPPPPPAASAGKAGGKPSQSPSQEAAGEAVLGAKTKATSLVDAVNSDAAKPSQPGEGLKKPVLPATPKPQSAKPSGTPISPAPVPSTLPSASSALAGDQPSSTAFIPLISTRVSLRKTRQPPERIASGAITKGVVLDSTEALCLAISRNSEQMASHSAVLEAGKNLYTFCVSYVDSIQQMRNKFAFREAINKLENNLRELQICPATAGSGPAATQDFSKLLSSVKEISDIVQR
Sequence of Vascular endothelial growth factor receptor 2 (P35968 whole entry): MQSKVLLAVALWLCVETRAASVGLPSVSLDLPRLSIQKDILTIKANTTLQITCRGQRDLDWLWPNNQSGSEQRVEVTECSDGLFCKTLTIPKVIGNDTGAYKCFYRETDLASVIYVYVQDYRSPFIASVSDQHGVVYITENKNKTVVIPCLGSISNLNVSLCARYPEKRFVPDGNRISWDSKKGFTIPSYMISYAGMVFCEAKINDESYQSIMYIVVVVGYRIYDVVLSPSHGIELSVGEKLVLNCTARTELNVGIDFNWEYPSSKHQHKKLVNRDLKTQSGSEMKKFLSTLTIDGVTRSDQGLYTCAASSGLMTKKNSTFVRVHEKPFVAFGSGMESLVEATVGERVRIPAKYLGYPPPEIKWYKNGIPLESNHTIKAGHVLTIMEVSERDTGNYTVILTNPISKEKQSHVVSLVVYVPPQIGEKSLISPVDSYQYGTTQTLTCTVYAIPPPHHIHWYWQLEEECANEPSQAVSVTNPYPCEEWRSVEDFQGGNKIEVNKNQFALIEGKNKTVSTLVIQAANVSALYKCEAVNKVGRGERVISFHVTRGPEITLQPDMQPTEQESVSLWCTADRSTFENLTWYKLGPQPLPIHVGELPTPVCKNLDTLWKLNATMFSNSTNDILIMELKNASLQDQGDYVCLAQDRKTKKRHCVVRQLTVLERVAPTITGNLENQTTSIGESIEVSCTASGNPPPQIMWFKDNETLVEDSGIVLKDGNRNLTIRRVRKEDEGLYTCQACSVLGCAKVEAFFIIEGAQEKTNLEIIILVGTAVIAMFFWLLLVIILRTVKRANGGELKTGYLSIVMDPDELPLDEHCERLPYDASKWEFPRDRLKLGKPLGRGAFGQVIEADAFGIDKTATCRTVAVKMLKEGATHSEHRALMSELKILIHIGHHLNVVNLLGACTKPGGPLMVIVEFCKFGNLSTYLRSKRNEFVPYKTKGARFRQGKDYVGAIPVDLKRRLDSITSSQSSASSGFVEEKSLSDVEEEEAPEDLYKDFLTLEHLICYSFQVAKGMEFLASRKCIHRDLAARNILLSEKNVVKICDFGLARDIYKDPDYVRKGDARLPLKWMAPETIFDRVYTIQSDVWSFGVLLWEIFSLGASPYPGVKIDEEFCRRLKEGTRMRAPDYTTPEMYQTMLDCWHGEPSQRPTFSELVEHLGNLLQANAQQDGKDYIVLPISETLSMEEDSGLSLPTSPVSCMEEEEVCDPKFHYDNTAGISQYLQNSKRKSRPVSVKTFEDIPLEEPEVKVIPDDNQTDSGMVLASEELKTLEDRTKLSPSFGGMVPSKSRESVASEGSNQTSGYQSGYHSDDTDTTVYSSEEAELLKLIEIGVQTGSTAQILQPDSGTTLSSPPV

| SMILES | Ki [1] [µM] | IC50 [2] [µM] | Ki [3] [µM] | Ki [4] [µM] | Ki [5] [µM] | Ki [6] [µM] | Ki [7] [µM] |
| --- | --- | --- | --- | --- | --- | --- | --- |
| COc1cc2ncc(C#N)c(N[C@@H]3C[C@H]3c3ccccc3)c2cc1OC | 0.024 | 0.09 | 0.95 | 0.25 | 1.6 | 2.1 | 0.15 |
| COCCOc1cc2ncc(C#N)c(N[C@@H]3C[C@H]3c3ccccc3)c2cc1OC | 0.06 | 0.0528 | 0.39 | 0.16 | 2.9 | 0.14 | 0.11 |
| COc1ccc2ncc(C#N)c(N[C@@H]3C[C@H]3c3ccccc3)c2c1 | 0.36 | 8.27 | > 10 | > 10 | > 10 | > 10 | 0.21 |
| N#Cc1cnc2cc(-c3ccc(CN4CCOCC4)cc3)ccc2c1N[C@@H]1C[C@H]1c1ccccc1 | 0.08 | 0.234 |  |  | 0.92 | 0.17 | 0.14 |
| COc1cc2c(N[C@@H]3C[C@H]3c3ccccc3)c(C#N)cnc2cc1OCCCc1cccnc1 | 0.22 | 0.173 | 0.3 | 0.14 | 1.9 | 0.099 | 0.049 |
| COc1cc2ncc(C#N)c(N[C@@H]3C[C@H]3c3ccccc3)c2cc1OCCN1CCOCC1 | 0.064 | 0.405 | > 10 | > 10 | > 10 | 0.15 | > 10 |
| COc1cc2c(N[C@@H]3C[C@H]3c3ccccc3)c(C#N)cnc2cc1OCCCN1CCOCC1 |  |  | 0.2 | > 10 | 0.35 | 0.42 | 0.045 |
| COc1cc2ncc(C#N)c(N[C@@H]3C[C@H]3c3ccccc3)c2cc1OCCCN1CCOCC1 | 0.052 |  | 1.8 | > 10 | 0.91 | 0.56 | > 10 |
| N#Cc1cnc2ccc(-c3cccc(CN4CCOCC4)c3)cc2c1N[C@@H]1C[C@H]1c1ccccc1 | 0.34 | 5.26 | > 10 | > 10 | > 10 | > 10 | 0.28 |
| N#Cc1cnc2ccc(-c3ccc(CN)cc3)cc2c1N[C@@H]1C[C@H]1c1ccccc1 | 0.04 | 2.1 | 0.77 | 0.45 | 1.4 | 1.5 | 0.086 |
| COc1cc2c(N[C@@H]3C[C@H]3c3ccccc3)c(C#N)cnc2cc1OC1CCN(C)CC1 | 0.36 | 0.36 | > 10 | > 10 | 1.5 | > 10 | > 10 |
| COc1cc2ncc(C#N)c(N[C@@H]3C[C@H]3c3ccccc3)c2cc1OCc1ccccc1 | 0.12 | 1.61 | > 10 | > 10 | > 10 | 2.6 | 0.33 |
| COc1cc2ncc(C#N)c(N[C@@H]3C[C@H]3c3ccccc3F)c2cc1OC | 0.036 |  |  |  |  |  |  |
| COc1cc2ncc(C#N)c(N[C@@H]3C[C@H]3c3ccccc3)c2cc1OCCCc1cccnc1 | 0.068 | 0.068 | 1.8 | > 10 | 1.71 | 0.65 | > 10 |
| COc1cc2ncc(C#N)c(N[C@@H]3C[C@H]3c3ccc(Cl)cc3)c2cc1OC | 0.044 |  |  |  |  |  |  |
| COc1cc2ncc(C#N)c(N[C@@H]3C[C@H]3c3cccc(Br)c3)c2cc1OC | 0.052 |  |  |  |  |  |  |
| COc1cc2ncc(C#N)c(N[C@@H]3C[C@H]3c3ccc(Br)cc3)c2cc1OC | 0.22 |  |  |  |  |  |  |
| COc1ccc2c(N[C@@H]3C[C@H]3c3ccccc3)c(C#N)cnc2c1 | 0.18 | 2.58 | > 10 | > 10 | > 10 | > 10 | 0.17 |
| COc1cc2ncc(C#N)c(N[C@@H]3C[C@H]3c3ccc(Oc4ccccc4)cc3)c2cc1OC | 0.08 |  |  |  |  |  |  |
| N#Cc1cnc2ccc(-c3ccc(CN4CCOCC4)cc3)cc2c1N[C@@H]1C[C@H]1c1ccccc1 | 0.4 | 2.53 | > 10 | > 10 | > 10 | > 10 | 0.57 |
| COc1cc2c(N[C@@H]3C[C@H]3c3ccccc3)c(C#N)cnc2cc1OCCCN1CCN(C)CC1 | 0.003 | 0.0057 | 0.044 | 0.041 | 0.11 | 0.3 | 0.027 |

Source: ChEMBL document CHEMBL1140464, “Synthesis and structure-activity relationship of 4-(2-aryl-cyclopropylamino)-quinoline-3-carbonitriles as EGFR tyrosine kinase inhibitors” (Bioorg Med Chem Lett, 2007)
